From paper PMC5563285 (Protein & Cell, 2017) come the findings set out here.

Positions of bridges follow the written chain, without caps; N, C: chain ends. Residues, ends and D or L forms follow the SMILES beside them.

The first assay concerns the target Aplysia californica acetylcholine binding protein (Ac-AChBP) (Aplysia californica). In words: SPR. (In general: In SPR one partner is held on a chip, and binding of the other changes the refractive index at the surface.)
For the compound α-conotoxin LvIA (N9A) (peptide), the Kd (usually the concentration at which binding is half-saturated) amounted to 82.8 nM. Still for that read-out and setting: the same measure for α-conotoxin LvIA (S4A) (peptide): 23.8 nM; for α-conotoxin LvIA (peptide): 132 nM.

In another assay the target is T1, Ac-AChBP (acetylcholine binding protein) (Aplysia californica, UniProt Q8WSF8).
T1 construct: The cDNA encoding the full-length Ac-AChBP was cloned into the pFastBac-Dual vector; 6xHis (C); made in house; host or cells: High Five insect cells (baculovirus, Bac-to-Bac; virus made in Sf9)
T1 sequence (Q8WSF8 20-236): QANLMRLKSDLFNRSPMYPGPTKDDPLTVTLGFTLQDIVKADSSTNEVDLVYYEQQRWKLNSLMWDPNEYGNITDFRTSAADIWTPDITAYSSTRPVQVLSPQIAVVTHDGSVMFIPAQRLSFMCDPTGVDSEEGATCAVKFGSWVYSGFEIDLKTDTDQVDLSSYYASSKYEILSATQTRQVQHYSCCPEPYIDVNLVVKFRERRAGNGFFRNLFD
In words: biochemical.
Take `CC[C@H](C)[C@@H]1NC(=O)[C@H](CCC(=O)O)NC(=O)[C@@H]2CCCN2C(=O)[C@H](Cc2cnc[nH]2)NC(=O)[C@H](C)NC(=O)[C@H](C(C)C)NC(=O)[C@H](CC(N)=O)NC(=O)[C@@H]2CSSC[C@H](NC(=O)CN)C(=O)N[C@@H](CSSC[C@@H](C(N)=O)NC1=O)C(=O)N[C@@H](CO)C(=O)N[C@@H](Cc1cnc[nH]1)C(=O)N1CCC[C@H]1C(=O)N[C@@H](C)C(=O)N2` [LvIA (D11A)] (H-GCCSHPACNVAHPEIC-NH2; disulfide 2-8, 3-16): the Kd came out at 17.5 nM.

`CC[C@H](C)[C@@H]1NC(=O)[C@H](CCC(=O)O)NC(=O)[C@@H]2CCCN2C(=O)[C@H](Cc2cnc[nH]2)NC(=O)[C@H](CC(=O)O)NC(=O)[C@H](C(C)C)NC(=O)[C@H](C)NC(=O)[C@@H]2CSSC[C@H](NC(=O)CN)C(=O)N[C@@H](CSSC[C@@H](C(N)=O)NC1=O)C(=O)N[C@@H](CO)C(=O)N[C@@H](Cc1cnc[nH]1)C(=O)N1CCC[C@H]1C(=O)N[C@@H](C)C(=O)N2` [LvIA (N9A)] (H-GCCSHPACAVDHPEIC-NH2; disulfide 2-8, 3-16): binding was characterised by a dissociation constant (Kd) of 82.8 nM. On the same count and under the same terms, the same measure for `CC[C@H](C)[C@@H]1NC(=O)[C@H](CCC(=O)O)NC(=O)[C@@H]2CCCN2C(=O)[C@H](Cc2cnc[nH]2)NC(=O)[C@H](CC(=O)O)NC(=O)[C@H](C(C)C)NC(=O)[C@H](CC(N)=O)NC(=O)[C@@H]2CSSC[C@H](NC(=O)CN)C(=O)N[C@@H](CSSC[C@@H](C(N)=O)NC1=O)C(=O)N[C@@H](C)C(=O)N[C@@H](Cc1cnc[nH]1)C(=O)N1CCC[C@H]1C(=O)N[C@@H](C)C(=O)N2` [LvIA (S4A)] (H-GCCAHPACNVDHPEIC-NH2; disulfide 2-8, 3-16): 23.8 nM. `CC[C@H](C)[C@@H]1NC(=O)[C@H](CCC(=O)O)NC(=O)[C@@H]2CCCN2C(=O)[C@H](Cc2cnc[nH]2)NC(=O)[C@H](CC(=O)O)NC(=O)[C@H](C(C)C)NC(=O)[C@H](CC(N)=O)NC(=O)[C@@H]2CSSC[C@H](NC(=O)CN)C(=O)N[C@@H](CSSC[C@@H](C(N)=O)NC1=O)C(=O)N[C@@H](CO)C(=O)N[C@@H](Cc1cnc[nH]1)C(=O)N1CCC[C@H]1C(=O)N[C@@H](C)C(=O)N2` [LvIA WT] registered a Kd of 132 nM.
